From patent publication US20260193227A1, “THERAPEUTIC COMPOUNDS AND METHODS” (UNIVERSITY OF IOWA RESEARCH FOUNDATION, priority 2022, published 2026)
“Also recorded” adds a separate entry of the source.

Experiments:
[1] = system: EUFA423F and EUFA423F HA cells; experiment: Clonogenic survival assay; type: cell-based, human; conditions: cells pre-treated 72 hours, colonies after 8 days
Source text: (§1) Cell lines: EUFA423F cells that are derived from a Fanconi Anemia patient with complementation group D1 and have biallelic mutations (7691 insAT and 9900 insA) in BRCA2 that result in two different truncated forms of BRCA2 (Howlett N G, et al., Science (New York, NY). 2002; 297(5581):606-9) and its counterpart complemented with expression vector for full-length BRCA2 (EUFA HA) were a generous gift from Dr. Simon Powell, Molecular Biology Program, Radiation Oncology, Sloan-Kettering Cancer Center, New York, NY).
Cell proliferation assay: Selective toxicity of the compounds towards human BRCA2 deficient cells was tested in EUFA423F and its complement EUFA423F HA using CellTiter-Glo® Luminescent Cell Viability Assay (Promega, Madison, WI). […] Post treatment, the cells were washed, treated with the CellTiter-Glo® reagent was added and the plate was analyzed as using a Gen5 (ver2.1) luminosity plate reader. The luminescence that reports on ATP generation by the surviving cells was normalized for the DMSO treated control as 100%. The normalized luminescence (average±standard deviation for at least three independent measurements obtained with different cell passages) was plotted in GraphPad Prism as a function of compound concentration. […] A colony had to contain at least 50 cells to be counted. […]

EUFA423F cells = experiment: CellTiter-Glo cell viability, BRCA2-mutated cells; type: cell-based, human; conditions: for toxicity towards EUFA423 cells: BRCA2-mutated cells, yes/no; for toxicity / selective toxicity towards BRCA2-mutated cells in cell viability assays: EUFA423F versus EUFA423F HA
Source text: as §1
Cell proliferation assay: Selective toxicity of the compounds towards human BRCA2 deficient cells was tested in EUFA423F and its complement EUFA423F HA using CellTiter-Glo® Luminescent Cell Viability Assay (Promega, Madison, WI). The cell lines were maintained in DMEM (Gibco/ThermoFisher Scientific, Waltham, MA) supplemented with 10% FBS and 10 mM HEPES (Gibco/ThermoFisher Scientific, Waltham, MA). EUFA423F HA cells were routinely supplemented with G418 in order to maintain the BRCA2 expression plasmid. Both cell lines were seeded in sterile tissue culture treated, white opaque 384-well plates (Perkin Elmer Inc., Waltham, MA) 3000 cells/well for EUFA423F HA and 2500 cells/well for EUFA423F) and allowed to adhere for 24 hours. Compounds dissolved in DMSO were added in the concentration range of 0-100 μM. Controls were treated with equivalent DMSO volumes. The cells were treated with compounds for 72 hours (to ensure that all cells experienced at least two S-phases). Post treatment, the cells were washed, treated with the CellTiter-Glo® reagent was added and the plate was analyzed as using a Gen5 (ver2.1) luminosity plate reader. The luminescence that reports on ATP generation by the surviving cells was normalized for the DMSO treated control as 100%. The normalized luminescence (average±standard deviation for at least three independent measurements obtained with different cell passages) was plotted in GraphPad Prism as a function of compound concentration. Clonogenic Survival: EUFA423F and EUFA423F HA cells were seeded in a 96 well plate. Compounds dissolved in DMSO were added to final concentrations of 0, 50, and 100 μM for the compound of Example 8 and the compound of Example 1, and 0, 5, and 10 μM for the compounds of Examples 2-7. The cells were treated with compounds for 72 hours. Post treatment, cell cultures were harvested by collecting all non-adherent cells in the well, trypsinization of all adherent cells, combining, pelleting and then resuspending in fresh media. Cultures treated with DMSO only were subsequently counted using a hemocytometer and plated at a density of 2000, 200 and 20 cells per well in 6-well culture plates, equal volumes of cultures were plated each inhibitor concentration. Each treatment and cell density conditions for both cell lines were plated in triplicate. After expanding the colonies for a period of 8 days, cultures were fixed with a solution of 70% ethanol and crystal violet for clonogenic survival analysis. Pictures of individual wells were taken using GelCount (Version 1.3.0.4) by Oxford Optronix (Abingdon UK). A colony had to contain at least 50 cells to be counted. The number of surviving colonies following treatment are presented as a percentage of number of colonies in the experiment where the cells were treated with DMSO only.

Row | Structure (SMILES) | clonogenic survival: confirmation of effect on cell viability [1] | toxicity towards EUFA423 cells (EUFA423F cells) | toxicity / selective toxicity towards BRCA2-mutated cells in cell viability assays (EUFA423F cells; CellTiter-Glo, 72 hours, listed as Z99) | toxicity / selective toxicity towards BRCA2-mutated cells in cell viability assays (EUFA423F cells; CellTiter-Glo, 72 hours, listed as Z56) | IC50 (EUFA423F cells; Homo sapiens, CellTiter-Glo, 72 hours, read-out: IC50 value for the EUFA423F viability experiments) [µM]
1 | O=C(Cn1cccc([N+](=O)[O-])c1=O)c1c[nH]c2ccccc12 [Example 1] | confirmed | yes | selectively toxic; also recorded: shows toxicity towards BRCA2-mutated cells | – | –
2 | COc1ccccc1NS(=O)(=O)c1cc(C(=O)O)ccc1C [Example 8] | confirmed | yes | – | toxicity only towards BRCA2 mutant cells; also recorded: selectively toxic to BRCA2-mutated cells | 32 ± 12.1
